Measurements from PMC12817919 (Journal of Virology, 2025).
Where two headings read alike, the source gives them in different places.

Key:
RSV A2 [1] = test: microbe, parasite or virus in culture; format: cell-based; conditions: human respiratory syncytial virus; HEp-2 (RSV A2, MOI = 0.2), 72 h, FFA
RSV ON1 = test: microbe, parasite or virus in culture; format: cell-based; conditions: human respiratory syncytial virus; HEp-2 (RSV ON1, MOI = 0.2), 72 h, FFA
in vitro = format: cell-based; conditions: human; HEp-2 cells, 72 h, CCK8
Description: HEp-2 cells (1.3 × 10^4) were seeded in 96-well plates for 20 h. The indicated compounds in a 3-fold dilution series were added to the cells, and three wells were performed in parallel. After 72 h, the cells were incubated with DMEM containing 10% FBS and CCK8 reagent (Beyotime Biotechnology, cat#C0038) for 30 min at 37°C. The absorbance at 450 nm and 600 nm was read using the PerkinElmer EnSight reader.

RSV A2 [2] = test: GFP-split cell-cell fusion assay mediated by RSV infection; format: cell-based, respiratory syncytial virus (RSV); conditions: RSV A2 MOI 1; 5, 1, 0.5 µM, 24 h, HEK293T GFP-split cells
Description: (§1) Cell–cell fusion assays were performed using a split-GFP system (GFP1-10 and GFP11) ([76]). Briefly, HEK293T cells stably expressing GFP1-10 were transfected with 1,000 ng of plasmids encoding either wild-type F or F mutants containing various amino acid substitutions. Alternatively, the cells were infected with RSV and treated with 0.1% DMSO or the indicated compounds at concentrations of 5, 1, and 0.5 µM. Then, the transfected or infected cells were co-cultured with HEK293T cells stably expressing GFP11 at a 1:1 ratio (8 × 10^4 cells/well) for 24 h in a 96-well plate. Images were acquired per well on an Operetta CLS High-Content Screening System (PerkinElmer).

RSV ON1-GFP [3] = test: Antiviral efficacy in primary human bronchial epithelial cells (GFP intensity); format: cell-based, respiratory syncytial virus (RSV); conditions: HBECs, MOI 2, 1 µM, 72 h
Description: The inhibitory effects of compounds on RSV ON1-GFP were evaluated in HBEC. […] At 72 h post-infection, the infected cells were visualized using an EVOS M5000 Cell Imaging System (Thermo Fisher Scientific).

RSV ON1-GFP [4] = test: Antiviral drug assay using lung airway organoids; conditions: 96 h, MOI 1
Description: In brief, HBECs were initially cultured in PneumaCult-Ex Plus Medium ([sequence] Technologies, cat#05040), then seeded at 2 × 10⁵ cells/well into anti-adherence rinsing solution ([sequence] Technologies, cat#07010)-treated AggreWell400 24-well plates ([sequence] Technologies, cat#34415). They were maintained in PneumaCult Apical-Out Airway Organoid Medium ([sequence] Technologies, cat#100-0620) for 6 days. Subsequently, the cells were transferred to similarly treated flat-bottom 24-well plates and cultured in the same medium for an additional 9 days.
The airway organoids were infected with RSV ON1-GFP at an MOI of 1 for 4 h. […] At 96 h post-infection, cell-free medium was harvested, and a TCID50 assay was performed to determine the viral titer. The organoids were fixed in parallel in 4% PFA, permeabilized with 0.5% Triton X-100 (1 h), blocked with 5% BSA (Macklin, cat#B824162; 2 h), and incubated overnight at 4°C with primary antibodies: Goat anti-Human p63/TP73L polyclonal antibody (R&D Systems, cat#AF1916), Rabbit anti-Human Mucin 5AC polyclonal antibody (Abways, cat#CY6826), and Mouse anti-acetylated tubulin monoclonal antibody (Sigma-Aldrich, cat#T7451). […] The GFP fluorescence intensity was quantified using ImageJ analysis software (RRID: SCR_003070; National Institutes of Health, NIH).

RSV F protein [5] = target: T1, RSV F protein (Human respiratory syncytial virus A, UniProt P03420); format: cell-based; set-up: expressed in transfected cells; host or cells: HEK293T; conditions: HEK293T cells expressing RSV F, western blot
Target sequence in this assay (P03420 137-574): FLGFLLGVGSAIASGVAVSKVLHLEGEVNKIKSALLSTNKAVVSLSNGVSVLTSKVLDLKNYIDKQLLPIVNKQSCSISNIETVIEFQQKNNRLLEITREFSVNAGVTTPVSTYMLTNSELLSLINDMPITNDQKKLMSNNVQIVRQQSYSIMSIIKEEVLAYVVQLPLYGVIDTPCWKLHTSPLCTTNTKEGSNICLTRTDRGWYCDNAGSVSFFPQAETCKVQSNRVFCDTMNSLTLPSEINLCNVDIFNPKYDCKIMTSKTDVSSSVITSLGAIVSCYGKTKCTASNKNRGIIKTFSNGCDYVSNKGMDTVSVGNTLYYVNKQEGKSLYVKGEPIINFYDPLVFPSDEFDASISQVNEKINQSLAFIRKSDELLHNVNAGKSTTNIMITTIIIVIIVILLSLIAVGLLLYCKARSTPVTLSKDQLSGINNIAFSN
Target sequence in this assay (P03420 26-109): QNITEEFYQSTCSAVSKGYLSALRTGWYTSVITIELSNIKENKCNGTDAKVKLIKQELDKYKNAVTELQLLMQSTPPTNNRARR

RSV F protein [6] = target: T1, RSV F protein; format: cell-based; set-up: HEp-2 cells were infected with RSV (MOI = 10); endogenous in cells; host or cells: HEp-2 cells infected with RSV (viral protein made in the infected cell); conditions: HEp-2, RSV MOI 10, 1 µM, 18 h
Target sequence in this assay (P03420 137-574): as the sequence (P03420 137-574) above
Target sequence in this assay (Q96SW2 whole entry, further chain): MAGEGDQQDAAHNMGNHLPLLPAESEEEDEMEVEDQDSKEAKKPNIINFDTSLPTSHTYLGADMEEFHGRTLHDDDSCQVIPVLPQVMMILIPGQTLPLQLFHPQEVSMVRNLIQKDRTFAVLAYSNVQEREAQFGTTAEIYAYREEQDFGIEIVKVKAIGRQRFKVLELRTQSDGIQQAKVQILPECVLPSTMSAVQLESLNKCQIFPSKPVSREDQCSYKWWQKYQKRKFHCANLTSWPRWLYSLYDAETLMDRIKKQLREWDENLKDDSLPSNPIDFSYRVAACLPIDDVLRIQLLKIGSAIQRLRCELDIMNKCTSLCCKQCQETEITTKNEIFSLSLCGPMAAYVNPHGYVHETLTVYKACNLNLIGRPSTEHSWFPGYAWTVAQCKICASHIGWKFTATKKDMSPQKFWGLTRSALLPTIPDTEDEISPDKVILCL
Target sequence in this assay (P03420 26-109): as the sequence (P03420 26-109) above

wild-type RSV = test: microbe, parasite or virus in culture; format: cell-based
RSV K394R = format: cell-based, respiratory syncytial virus (RSV); conditions: for Fold resistance (RSV K394R): fold change in the EC50 relative to that of wild-type RSV
RSV K399N = format: cell-based, respiratory syncytial virus (RSV); conditions: for Fold resistance (RSV K399N): fold change in the EC50 relative to that of wild-type RSV
RSV T400A = format: cell-based, respiratory syncytial virus (RSV); conditions: for Fold resistance (RSV T400A): fold change in the EC50 relative to that of wild-type RSV
RSV A2 P18 (Control) = test: Antiviral activity against passaged virus in HEp-2 cells (FFA); format: cell-based, respiratory syncytial virus (RSV); conditions: human respiratory syncytial virus, HEp-2, MOI 0.2, FFA
[7] = system: Lonafarnib escape virus populations P18 (RSV A2); test: as above; format: cell-based, respiratory syncytial virus (RSV); conditions: human respiratory syncytial virus, HEp-2, MOI 0.2, FFA
RSV ON1 P18 (Control) = test: as above; format: cell-based, respiratory syncytial virus (RSV); conditions: human respiratory syncytial virus, HEp-2, MOI 0.2, FFA
[8] = system: Lonafarnib escape virus populations P18 (RSV ON1); test: as above; format: cell-based, respiratory syncytial virus (RSV); conditions: human respiratory syncytial virus, HEp-2, MOI 0.2, FFA
RSV V127G = format: cell-based, respiratory syncytial virus (RSV)
RSV L141F = format: cell-based, respiratory syncytial virus (RSV)
RSV T400I = format: cell-based, respiratory syncytial virus (RSV)
RSV F488L = format: cell-based, respiratory syncytial virus (RSV)
[9] = system: DS-Cav1 mutants (T335I, K394R, S398L, K399N, T400A, and D401E); format: binding; conditions: D401E compared with DS-Cav1
RSV F protein mutants = test: GFP-split cell-cell fusion assay mediated by transfected F or F mutants; format: cell-based, respiratory syncytial virus (RSV); conditions: 5, 1, 0.5 µM, 24 h, HEK293T GFP-split cells
Description: as §1

RSV = conditions: oral administration; cited from earlier work
[10] = human respiratory syncytial virus, wild-type RSV, Table 2 cross-resistance experiment, HEp-2, read-out: EC50 RSV
[11] = Table 2 cross-resistance experiment, HEp-2, read-out: EC50 RSV K394R
[12] = Table 2 cross-resistance experiment, HEp-2, read-out: EC50 RSV K399N
[13] = Table 2 cross-resistance experiment, HEp-2, read-out: EC50 RSV T400A

## O=C1CCC(N2C(=O)c3cccc(NCCOCCOCCOCCC(=O)N4CCC(CC(=O)N5CCC([C@H]6c7ncc(Br)cc7CCc7cc(Cl)cc(Br)c76)CC5)CC4)c3C2=O)C(=O)N1 (stereo partly drawn) [compound 0179841, 4-((2-(2-(2-(3-(4-(2-(4-((R)−3,10-dibromo-8-chloro-6,11-dihydro-5H-benzo[5,6]cyclohepta[1,2-b]pyridin-11-yl)piperidin-1-yl)−2-oxoethyl)piperidin-1-yl)−3-oxopropoxy)ethoxy)ethoxy)ethyl)amino)−2-(2,6-dioxopiperidin-3-yl)isoindoline-1,3-dione]
RSV A2 [1]
  EC50: 450 ± 40 nM
RSV ON1
  EC50: 460 ± 30 nM
In vitro
  CC50: > 100000 nM
RSV A2 [2]
  inhibition of RSV-induced cell-cell fusion activity: significantly inhibited
RSV ON1-GFP [3]
  RSV infection level (GFP intensity): significant decrease in the RSV infection level
RSV ON1-GFP [4]; 5 µM, TCID50 of supernatant
  reduction of viral titers compared with the DMSO control: more than 100 fold
RSV ON1-GFP [4]; 5, 1, 0.5 µM
  viral loads and protein expression in lung airway organoids: significantly reduced viral loads and protein expression in a dose-dependent manner
RSV F protein [5]
  effect on F protein levels: time- and concentration-dependent
RSV F protein [6]
  degradation of the F protein during RSV infection: induced significant degradation of the F protein

## Cc1cn2nc([C@@H]3CCCCN3C(=O)c3cc(Cl)ccc3NS(C)(=O)=O)cc2nc1N1CC[C@H](N)C1 [GS-5806]
wild-type RSV; [10]
  EC50: 0.1 nM
RSV K394R; [11]
  EC50: 192 nM
RSV K394R
  Fold resistance (RSV K394R): 1,673.9
RSV K399N; [12]
  EC50: 4.4 nM
RSV K399N
  Fold resistance (RSV K399N): 38.3
RSV T400A; [13]
  EC50: 28.8 nM
RSV T400A
  Fold resistance (RSV T400A): 250.1

## Cc1ccc2nc(N3CCS(=O)(=O)c4ccccc4C3)nc(NCC3(N)COC3)c2c1 [AK0529]
wild-type RSV; [10]
  EC50: 1.3 nM
RSV K394R; [11]
  EC50: 6550 nM
RSV K394R
  Fold resistance (RSV K394R): 4,983.3
RSV K399N; [12]
  EC50: 2250 nM
RSV K399N
  Fold resistance (RSV K399N): 1,713.3
RSV T400A; [13]
  EC50: 9850 nM
RSV T400A
  Fold resistance (RSV T400A): 7,491.3

## NC(=O)N1CCC(CC(=O)N2CCC([C@H]3c4ncc(Br)cc4CCc4cc(Cl)cc(Br)c43)CC2)CC1 [Lonafarnib]
RSV A2 P18 (Control); HEp-2, Lineage 1
  EC50: 40 nM
RSV A2 P18 (Control); HEp-2, Lineage 2
  EC50: 50 nM
RSV A2 P18 (Control); HEp-2, Lineage 3
  EC50: 40 nM
[7]; HEp-2, Lineage 1
  EC50: 800 nM
[7]; HEp-2, Lineage 2
  EC50: 1080 nM
[7]; HEp-2, Lineage 3
  EC50: 790 nM
RSV ON1 P18 (Control); HEp-2, Lineage 1
  EC50: 90 nM
RSV ON1 P18 (Control); HEp-2, Lineage 2
  EC50: 130 nM
RSV ON1 P18 (Control); HEp-2, Lineage 3
  EC50: 130 nM
[8]; HEp-2, Lineage 1
  EC50: 3360 nM
[8]; HEp-2, Lineage 2
  EC50: 4100 nM
[8]; HEp-2, Lineage 3
  EC50: 3500 nM
wild-type RSV; human respiratory syncytial virus, 72 h, Wild-type, HEp-2, MOI 0.2, 3 days, FFA, read-out: EC50
  EC50: 46 ± 10 nM
wild-type RSV; human respiratory syncytial virus, HEp-2, Wild-type, EC90 = 9^1/HillSlope*EC50
  EC90: 190 ± 120 nM
wild-type RSV; [10]
  EC50: 45.6 nM
RSV V127G; EC90 = 9^1/HillSlope*EC50
  EC90: 177 ± 38 nM
RSV V127G; HEp-2, MOI 0.2, 3 days, FFA
  EC50: 44 ± 5 nM
RSV L141F; EC90 = 9^1/HillSlope*EC50
  EC90: 631 ± 125 nM
RSV L141F; HEp-2, MOI 0.2, 3 days, FFA
  EC50: 79 ± 19 nM
RSV K394R; K394R, EC90 = 9^1/HillSlope*EC50
  EC90: 15000 ± 7330 nM
RSV K394R; K394R, HEp-2, MOI 0.2, 3 days, FFA, read-out: EC50
  EC50: 5130 ± 1690 nM
RSV K394R; [11]
  EC50: 3840 nM
RSV K399N; K399N, EC90 = 9^1/HillSlope*EC50
  EC90: 1550 ± 277 nM
RSV K399N; K399N, HEp-2, MOI 0.2, 3 days, FFA, read-out: EC50
  EC50: 450 ± 32 nM
RSV K399N; [12]
  EC50: 406 nM
RSV T400A; T400A, EC90 = 9^1/HillSlope*EC50
  EC90: 4640 ± 440 nM
RSV T400A; T400A, HEp-2, MOI 0.2, 3 days, FFA, read-out: EC50
  EC50: 1520 ± 127 nM
RSV T400A; [13]
  EC50: 1120 nM
RSV T400I; EC90 = 9^1/HillSlope*EC50
  EC90: 4610 ± 663 nM
RSV T400I; HEp-2, MOI 0.2, 3 days, FFA
  EC50: 1510 ± 184 nM
RSV F488L; EC90 = 9^1/HillSlope*EC50
  EC90: 1900 ± 160 nM
RSV F488L; HEp-2, MOI 0.2, 3 days, FFA
  EC50: 700 ± 69 nM
RSV A2 [1]
  EC50: 40 ± 2 nM
RSV ON1
  EC50: 60 ± 20 nM
In vitro
  CC50: 17900 ± 1130 nM
[9]
  binding affinity for lonafarnib (SPR): significantly decreased the binding affinity
RSV F protein mutants; T335I, S398L, K394R, K399I/N, T400A/I, and D401E mutants
  inhibition of mutant-induced cell-cell fusion activity: did not or only slightly inhibit
RSV F protein mutants; V76A, K80N, L119I, and D392G/N mutants
  inhibition of mutant-induced cell-cell fusion activity: significantly inhibited
RSV
  RSV load in murine infection model: dose-dependent reduction in the RSV load
RSV F protein [5]
  effect on F protein levels: did not affect F protein levels

## CS(=O)(=O)CCCn1c(Cn2c(=O)n(CC(F)(F)F)c3ccncc32)cc2cc(Cl)ccc21 [JNJ-53718678]
wild-type RSV; wild-type RSV, Table 2 cross-resistance experiment, HEp-2, read-out: EC50 RSV
  EC50: 0.7 nM
RSV K394R; [11]
  EC50: 10100 nM
RSV K394R
  Fold resistance (RSV K394R): 15,582.2
RSV K399N; [12]
  EC50: 248 nM
RSV K399N
  Fold resistance (RSV K399N): 382.2
RSV T400A; [13]
  EC50: 11600 nM
RSV T400A
  Fold resistance (RSV T400A): 17,920.3

## NCc1ccc2c(c1)nc(CN1C(=O)C3(CC3)c3ccc(F)cc31)n2CCCC(F)(F)F [RV521]
wild-type RSV; [10]
  EC50: 0.1 nM
RSV K394R; [11]
  EC50: 179 nM
RSV K394R
  Fold resistance (RSV K394R): 2,462.8
RSV K399N; [12]
  EC50: 0.4 nM
RSV K399N
  Fold resistance (RSV K399N): 5.4
RSV T400A; [13]
  EC50: 12.6 nM
RSV T400A
  Fold resistance (RSV T400A): 173.6
